From ChEMBL document CHEMBL1201862, “PubChem BioAssay data set” (2004)
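Grown in 96-well plates, cells were treated for 48 hours with each compound at five concentrations. Insufficient inhibition: endpoint recorded as highest concentration tested. At the GI50, growth is halved.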 Activity calls are given as the source filed them. Cut-off read from the data, not from the text of the source: active = GI50 up to about 1.1 µM and inactive = higher.

Legend:
Experiment in all cases: inhibition of tumour cell growth, NCI panel, 48 h
IGROV-1 = test system: IGROV-1
SNB-75 = test system: SNB-75
A498 = test system: A498
COLO 205 = test system: COLO 205
A549 = test system: A549
K562 = test system: K562
HL-60 = test system: HL-60
HCC 2998 = test system: HCC 2998
SW-620 = test system: SW-620
HOP-92 = test system: HOP-92
UACC-62 = test system: UACC-62
786-0 = test system: 786-0
RPMI-8226 = test system: RPMI-8226
UACC-257 = test system: UACC-257
SN12C = test system: SN12C
CAKI-1 = test system: CAKI-1
SF-268 = test system: SF-268
TK-10 = test system: TK-10

Row | SMILES | GI50 (IGROV-1) | GI50 (SNB-75) | GI50 (A498) | GI50 (COLO 205) | GI50 (A549) | GI50 (K562) | GI50 (HL-60) | GI50 (HCC 2998) | GI50 (SW-620) | GI50 (HOP-92) | GI50 (UACC-62) | GI50 (786-0) | GI50 (RPMI-8226) | GI50 (UACC-257) | GI50 (SN12C) | GI50 (CAKI-1) | GI50 (SF-268) | GI50 (TK-10)
1 | CC1(C)Oc2ccccc2[N+]([O-])=C1c1ccccc1 | > 100 µM (inactive) | > 100 µM (inactive) | > 100 µM (inactive) | > 100 µM (inactive) | > 100 µM (inactive) | > 100 µM (inactive) | > 100 µM (inactive) | > 100 µM (inactive) | > 100 µM (inactive) | > 100 µM (inactive) | > 100 µM (inactive) | > 100 µM (inactive) | > 100 µM (inactive) | > 100 µM (inactive) | > 100 µM (inactive) | > 100 µM (inactive) | > 100 µM (inactive) | 
2 | CC1C[C@]2(C[C@@H](C)C(=O)O2)O[C@@H]2CC3(C)[C@@H]4CCC5C(C)(C)OC(=O)C[C@H]6OO[C@]4(CC[C@]3(C)C12)CC56O (stereo partly drawn) | > 100 µM (inactive) | > 100 µM (inactive) |  |  | > 100 µM (inactive) |  | > 100 µM (inactive) | > 100 µM (inactive) | > 100 µM (inactive) |  | > 100 µM (inactive) | > 100 µM (inactive) | > 100 µM (inactive) | > 100 µM (inactive) | > 100 µM (inactive) |  |  | > 100 µM (inactive)
3 | Cc1nc(Nc2ccc(Cl)cc2)sc1C(=O)Nc1cccc2c(=O)[nH][nH]c(=O)c12 | 25.2 µM (inactive) | 28 µM (inactive) | 22.8 µM (inactive) | 16 µM (inactive) | 33.1 µM (inactive) | 1.26 µM (inactive) | 8.75 µM (inactive) | 39.5 µM (inactive) | 25.5 µM (inactive) | 13.3 µM (inactive) | 0.439 µM (active) | 19 µM (inactive) |  | 96.8 µM (inactive) | 36.1 µM (inactive) | 33.2 µM (inactive) | 31.8 µM (inactive) | > 100 µM (inactive)
4 | COc1ccc(/C=C2\C(=O)N(C(=O)Cc3ccccc3)N=C2C)cc1OC |  | > 100 µM (inactive) |  | > 100 µM (inactive) | > 100 µM (inactive) | > 100 µM (inactive) | > 100 µM (inactive) | > 100 µM (inactive) | > 100 µM (inactive) |  |  | > 100 µM (inactive) | > 100 µM (inactive) | > 100 µM (inactive) | > 100 µM (inactive) | > 100 µM (inactive) | > 100 µM (inactive) | > 100 µM (inactive)
5 | CC1=C(C(=O)Nc2ccc([N+](=O)[O-])cc2)C(c2ccccc2F)C(C(=O)Nc2ccc([N+](=O)[O-])cc2)=C(C)N1 | 12.8 µM (inactive) | 13.9 µM (inactive) | 5.48 µM (inactive) | 13 µM (inactive) | 9.64 µM (inactive) | 6.61 µM (inactive) | 4.7 µM (inactive) | 5.94 µM (inactive) | 21.8 µM (inactive) | 4.45 µM (inactive) |  | 20.8 µM (inactive) | 3.8 µM (inactive) | 15 µM (inactive) | 8.18 µM (inactive) | 18.2 µM (inactive) | 21.2 µM (inactive) | 23.7 µM (inactive)
6 | Cc1cc(S(=O)(=O)O)c(NC(=O)C(=O)Cc2cc(=O)oc3cc(O)ccc23)cc1Cl | > 100 µM (inactive) | > 100 µM (inactive) | > 100 µM (inactive) | > 100 µM (inactive) | > 100 µM (inactive) | > 100 µM (inactive) | > 100 µM (inactive) | > 100 µM (inactive) | > 100 µM (inactive) | > 100 µM (inactive) | > 100 µM (inactive) | > 100 µM (inactive) |  | > 100 µM (inactive) | > 100 µM (inactive) | > 100 µM (inactive) | > 100 µM (inactive) | > 100 µM (inactive)
7 | COc1ccc(NC(=O)/C(=N/O)C(C)=O)cc1 | > 100 µM (inactive) | > 100 µM (inactive) | > 100 µM (inactive) |  | > 100 µM (inactive) | 47.5 µM (inactive) | > 100 µM (inactive) | > 100 µM (inactive) | 15.8 µM (inactive) | > 100 µM (inactive) | > 100 µM (inactive) | 45.1 µM (inactive) | > 100 µM (inactive) | > 100 µM (inactive) | > 100 µM (inactive) | > 100 µM (inactive) | > 100 µM (inactive) | > 100 µM (inactive)
8 | O=C1OC(=O)c2c1c(-c1ccccc1)nc1ccccc21 | > 100 µM (inactive) | > 100 µM (inactive) | > 100 µM (inactive) | > 100 µM (inactive) | > 100 µM (inactive) | > 100 µM (inactive) | > 100 µM (inactive) | > 100 µM (inactive) | > 100 µM (inactive) |  | > 100 µM (inactive) | > 100 µM (inactive) | > 100 µM (inactive) | > 100 µM (inactive) | > 100 µM (inactive) | > 100 µM (inactive) | > 100 µM (inactive) | > 100 µM (inactive)
9 | O=C(c1ccccc1)n1cc(/C=C/[N+](=O)[O-])c2ccccc21 | 22.6 µM (inactive) | 32.7 µM (inactive) | > 100 µM (inactive) | 24.7 µM (inactive) | 85.1 µM (inactive) | 19.7 µM (inactive) | 3.24 µM (inactive) |  | 19.6 µM (inactive) | 23.8 µM (inactive) | 20.1 µM (inactive) | 20.2 µM (inactive) | 15.7 µM (inactive) | 21.2 µM (inactive) | 39.2 µM (inactive) | 84.9 µM (inactive) | 23.1 µM (inactive) | > 100 µM (inactive)
10 | CCC12CCCN(Cc3ccccc3)C1c1c(n(C)c3ccccc13)[C@H](C(=O)OC)C2 (stereo partly drawn) | > 239 µM (inactive) |  |  | 112 µM (inactive) | > 239 µM (inactive) | > 239 µM (inactive) | > 239 µM (inactive) | > 239 µM (inactive) | 211 µM (inactive) | 10.6 µM (inactive) | > 239 µM (inactive) | > 239 µM (inactive) | > 239 µM (inactive) | 110 µM (inactive) | 224 µM (inactive) | 173 µM (inactive) | > 239 µM (inactive) | > 239 µM (inactive)
11 | COC(=O)C(=Cc1cc(OC)c(OC)c(OC)c1-c1cc2c(cc1C1(C)OCCS1)OCO2)C(=O)OC (stereo not drawn) | 16.3 µM (inactive) |  |  | 40 µM (inactive) | 29.1 µM (inactive) | 33.6 µM (inactive) | 24.9 µM (inactive) | 32.2 µM (inactive) | 33.2 µM (inactive) | 3.5 µM (inactive) | 15.5 µM (inactive) | 38.8 µM (inactive) | 28 µM (inactive) | 31.4 µM (inactive) | 44.5 µM (inactive) | 19.3 µM (inactive) | 29.5 µM (inactive) | 86.9 µM (inactive)
12 | CCOP(=O)(OCC)C1=NC=CC=CC1n1c(-c2ccccc2)nn(CC)c1=O (stereo not drawn) | > 100 µM (inactive) |  |  | > 100 µM (inactive) | > 100 µM (inactive) |  | > 100 µM (inactive) | > 100 µM (inactive) | > 100 µM (inactive) | 7.06 µM (inactive) | > 100 µM (inactive) | > 100 µM (inactive) | > 100 µM (inactive) | > 100 µM (inactive) | > 100 µM (inactive) | > 100 µM (inactive) | > 100 µM (inactive) | > 100 µM (inactive)
13 | COc1cccc(C2CC23C(=O)NC(=O)NC3=O)c1 (stereo not drawn) | > 100 µM (inactive) |  | > 100 µM (inactive) | > 100 µM (inactive) | > 100 µM (inactive) | > 100 µM (inactive) | > 100 µM (inactive) | > 100 µM (inactive) | > 100 µM (inactive) | > 100 µM (inactive) | > 100 µM (inactive) | > 100 µM (inactive) | > 100 µM (inactive) | > 100 µM (inactive) | > 100 µM (inactive) | > 100 µM (inactive) | > 100 µM (inactive) | > 100 µM (inactive)
14 | CC(C)c1ccccc1NC(=O)C(=O)Cc1nc2ccccc2s1 | > 100 µM (inactive) | > 100 µM (inactive) | > 100 µM (inactive) | > 100 µM (inactive) | > 100 µM (inactive) |  | > 100 µM (inactive) | > 100 µM (inactive) | > 100 µM (inactive) | > 100 µM (inactive) | > 100 µM (inactive) | > 100 µM (inactive) |  | > 100 µM (inactive) | > 100 µM (inactive) | > 100 µM (inactive) | > 100 µM (inactive) | > 100 µM (inactive)
15 | CCC1CN2CCc3cc(OC)c(OC)cc3C2CC1CC1c2cc(OC)c(OC)cc2CCN1C(=O)CNC(=O)OC(C)(C)C (stereo not drawn) | 19.5 µM (inactive) | 20.9 µM (inactive) | 32.3 µM (inactive) | 3.44 µM (inactive) | 4.57 µM (inactive) | 3.34 µM (inactive) | 4.14 µM (inactive) | 3.1 µM (inactive) | 4.07 µM (inactive) |  | 19.7 µM (inactive) | 4.08 µM (inactive) | 19 µM (inactive) | 21.4 µM (inactive) | 24.1 µM (inactive) | 21.7 µM (inactive) | 24.4 µM (inactive) | 28.6 µM (inactive)
16 | COC(=O)/C(C#N)=C1\CCC(OC)N1 (stereo not drawn) | > 100 µM (inactive) | > 100 µM (inactive) |  | > 100 µM (inactive) | > 100 µM (inactive) | > 100 µM (inactive) | > 100 µM (inactive) | > 100 µM (inactive) | > 100 µM (inactive) |  | > 100 µM (inactive) | > 100 µM (inactive) | > 100 µM (inactive) | > 100 µM (inactive) | > 100 µM (inactive) | > 100 µM (inactive) | > 100 µM (inactive) | > 100 µM (inactive)
17 | Cc1cccc2c1Sc1ccccc1C2NC(=O)CCN(C)C (stereo not drawn) | > 100 µM (inactive) | 96.4 µM (inactive) |  | > 100 µM (inactive) | > 100 µM (inactive) | > 100 µM (inactive) | > 100 µM (inactive) | > 100 µM (inactive) | > 100 µM (inactive) |  | > 100 µM (inactive) | > 10 µM (inactive) | > 100 µM (inactive) | > 100 µM (inactive) | > 100 µM (inactive) |  | > 100 µM (inactive) | > 100 µM (inactive)
